In patent US20150211028A1, “Production of 1,3-Propanediol in Cyanobacteria” (Algenol Biofuels Inc., priority 2013, published 2015):

Key:
[1] = tested on: Synechococcus sp. PCC 7002; test: Tolerance testing: growth (OD750) after a one time bolus of 1,3-propanediol; assay type: cell-based; conditions: OD750 monitored for one week
Source text: (§1) The tolerance of cyanobacterial strains Synechocystis sp. PCC 6803 and Synechococcus sp. PCC 7002 to the presence of accumulated 1,3-propanediol in the culture medium was examined by adding a one time bolus of varying amounts of 1,3-propanediol (ranging from 0.05% to 5%) to exponential phase cultures and comparing the growth of these cultures to a wild type culture with no addition. Growth was monitored by optical density (OD750) for one week. There was no effect on the growth of Synechocystis sp. PCC 6803 in the presence of up to 1% 1,3-propanediol compared to the control (no addition of 1,3-propanediol). […] At 5% 1,3-propanediol, Synechocystis sp. […] There was no effect on the growth of Synechococcus sp. PCC 7002 with up to 1% 1,3-propanediol addition.

[2] = tested on: Synechocystis sp. PCC 6803; test: as above; assay type: cell-based; conditions: OD750 monitored for one week
Source text: as §1

For `OCCCO` [1,3-propanediol], the “survival of the culture” value ([1]; 2% 1,3-propanediol addition) was “lethal resulting in a completely bleached culture”, the “effect on growth compared to the control” value ([1]; up to 1% 1,3-propanediol addition, exponential phase culture) was “no effect” and the “effect on growth compared to the control” value ([2]; 2% and 3% 1,3-propanediol in culture medium) was “inhibition effect resulting in a yellowing discoloration of the culture, slower growth and clumping”. For the same compound, the “survival of the culture” value ([2]; 5% 1,3-propanediol in culture medium) was “could not survive and bleached out after 3 days” and the “effect on growth compared to the control” value ([2]; up to 1% 1,3-propanediol in culture medium, exponential phase culture) was “no effect”.
